Experimental data published in PMC4965013, “Open Source Drug Discovery with the Malaria Box Compound Collection for Neglected Diseases and Beyond” (PLoS Pathogens, 2016).

Columns and labels:
P. falciparum = test: EC50 listed in S2 Table Metabolomics (used to set the concentration tested); format: cell-based; conditions: Plasmodium falciparum; EC50 used for Factor_XEC50 in metabolomics; read-out: EC50_nM
[1] = tested on: P. falciparum 3D7 trophozoites; test: Metabolomic fingerprint profiling LC-MS; format: cell-based, Plasmodium falciparum; design: UDP-D-glucose / ADP-D-glucose: unit not given here; conditions: for Acetyllysine / N-acetyl-L-ornithine / N-carbamoyl-L-aspartate / NADPH / dAMP / dCMP / dTDP / dTMP / dTTP / dihydroorotate / orotate / DLH / DLS/SDL/SID / PD / PEE / PVNF / 3-phosphoglycerate / ADP-D-glucose / ATP / CDP / D-sedoheptulose-1/7-phosphate / FAD / GMP / NAD+ / NADP+ / Octoluse Bisphosphate / Pyroglutamic acid / UDP-D-glucose / UDP-D-glucuronate / UDP-N-acetyl-glucosamine / UDP / UMP / UTP / a-ketoglutarate / citrate/isocitrate / cytidine / dATP / dGMP/AMP / fumarate / glucose-1/6-phosphate / glycerate / guanine / guanosine / hypoxanthine / indole / inosine / nicotinate / ornithine / phosphoenolpyruvate / pyruvate / ribose-phosphate / sarcosine/alanine / sn-glycerol-3-phosphate / succinate/methylmalonic acid / uridine / xanthosine: S2 Table Metabolomics; for Acetyllysine: metabolite Acetyllysine; for N-acetyl-L-ornithine: metabolite N-acetyl-L-ornithine; for N-carbamoyl-L-aspartate: metabolite N-carbamoyl-L-aspartate; for NADPH: metabolite NADPH; for dAMP: metabolite dAMP; for dCMP: metabolite dCMP; for dTDP: metabolite dTDP; for dTMP: metabolite dTMP; for dTTP: metabolite dTTP; for dihydroorotate: metabolite dihydroorotate; for orotate: metabolite orotate; for DLH: peptide DLH; for DLS/SDL/SID: peptide DLS/SDL/SID; for PD: peptide PD; for PEE: peptide PEE; for PVNF: peptide PVNF; for 3-phosphoglycerate: metabolite 3-phosphoglycerate; for ADP-D-glucose: metabolite ADP-D-glucose; for ATP: metabolite ATP; for CDP: metabolite CDP; for CDP / D-sedoheptulose-1/7-phosphate / GMP / Octoluse Bisphosphate / UDP / UMP / UTP / citrate/isocitrate / dGMP/AMP / fumarate / glucose-1/6-phosphate / glycerate / guanine / guanosine / inosine / pyruvate / sarcosine/alanine / succinate/methylmalonic acid / uridine / xanthosine: change in metabolite level after compound treatment; for D-sedoheptulose-1/7-phosphate: metabolite D-sedoheptulose-1/7-phosphate; for FAD: metabolite FAD; for GMP: metabolite GMP; for NAD+: metabolite NAD+; for NADP+: metabolite NADP+; for Octoluse Bisphosphate: metabolite Octoluse Bisphosphate; for Pyroglutamic acid: metabolite Pyroglutamic acid; for UDP-D-glucose: metabolite UDP-D-glucose; for UDP-D-glucuronate: metabolite UDP-D-glucuronate; for UDP-N-acetyl-glucosamine: metabolite UDP-N-acetyl-glucosamine; for UDP: metabolite UDP; for UMP: metabolite UMP; for UTP: metabolite UTP; for a-ketoglutarate: metabolite a-ketoglutarate; for citrate/isocitrate: metabolite citrate/isocitrate; for cytidine: metabolite cytidine; for dATP: metabolite dATP; for dGMP/AMP: metabolite dGMP/AMP; for fumarate: metabolite fumarate; for glucose-1/6-phosphate: metabolite glucose-1/6-phosphate; for glycerate: metabolite glycerate; for guanine: metabolite guanine; for guanosine: metabolite guanosine; for hypoxanthine: metabolite hypoxanthine; for indole: metabolite indole; for inosine: metabolite inosine; for 2_3-Diphosphoglyceric acid / 4-phosphopantothenate / 6-phospho-D-gluconate / FMN / IMP / Pyrophosphate / Sedoheptoluse bisphosphate / cyclic-AMP / glutathione disulfide / lactate / myo-inositol: metabolite level change after treatment; for nicotinate: metabolite nicotinate; for ornithine: metabolite ornithine; for phosphoenolpyruvate: metabolite phosphoenolpyruvate; for pyruvate: metabolite pyruvate; for ribose-phosphate: metabolite ribose-phosphate; for sarcosine/alanine: metabolite sarcosine/alanine; for sn-glycerol-3-phosphate: metabolite sn-glycerol-3-phosphate; for succinate/methylmalonic acid: metabolite succinate/methylmalonic acid; for uridine: metabolite uridine; for xanthosine: metabolite xanthosine

SMILES: COc1ccc(Br)cc1C1Nc2ccc3ccccc3c2C2=C1C(=O)CC(c1ccccc1)C2 (stereo not drawn) [MMV020885]
- EC50 (P. falciparum): 0.18 µM
- Acetyllysine [1]: -0.2018
- N-acetyl-L-ornithine [1]: 0.05879
- N-carbamoyl-L-aspartate [1]: 0.2499
- NADPH [1]: 0.3881
- dAMP [1]: -0.07633
- dCMP [1]: -0.1829
- dTDP [1]: -0.08159
- dTMP [1]: -0.06085
- dTTP [1]: 0.08356
- dihydroorotate [1]: 0.4211
- orotate [1]: -0.07163
- DLH [1]: 0.1131
- DLS/SDL/SID [1]: 0.0252
- PD [1]: -0.01204
- PEE [1]: -0.02185
- PVNF [1]: 0.06588
- 3-phosphoglycerate [1]: 0.1773
- ADP-D-glucose [1]: 0.1062
- ATP [1]: 0.1529
- CDP [1]: -0.1573
- D-sedoheptulose-1/7-phosphate [1]: -0.3333
- FAD [1]: 0.09744
- GMP [1]: 0.2606
- NAD+ [1]: -0.4069
- NADP+ [1]: 0.1167
- Octoluse Bisphosphate [1]: 0.1001
- Pyroglutamic acid [1]: 0.05012
- UDP-D-glucose [1]: 0.09185
- UDP-D-glucuronate [1]: 0.09622
- UDP-N-acetyl-glucosamine [1]: 0.0596
- UDP [1]: -0.2367
- UMP [1]: 0.2791
- UTP [1]: -0.3268
- a-ketoglutarate [1]: 0.1759
- citrate/isocitrate [1]: -0.004418
- cytidine [1]: -0.005151
- dATP [1]: 0.1038
- dGMP/AMP [1]: -0.1164
- fumarate [1]: 0.1396
- glucose-1/6-phosphate [1]: 0.3285
- glycerate [1]: 0.153
- guanine [1]: 0.03354
- guanosine [1]: 0.1241
- hypoxanthine [1]: 0.09912
- indole [1]: 0.3168
- inosine [1]: 0.1551
- 2_3-Diphosphoglyceric acid [1]: 0.06597
- 4-phosphopantothenate [1]: 0.04165
- 6-phospho-D-gluconate [1]: 0.04292
- FMN [1]: 0.1362
- IMP [1]: 0.02368
- Pyrophosphate [1]: 0.2656
- Sedoheptoluse bisphosphate [1]: 0.01639
- cyclic-AMP [1]: -0.09684
- glutathione disulfide [1]: 0.06546
- lactate [1]: 0.1283
- myo-inositol [1]: 0.176
- nicotinate [1]: 0.1246
- ornithine [1]: -0.2474
- phosphoenolpyruvate [1]: 0.1975
- pyruvate [1]: 0.1649
- ribose-phosphate [1]: 0.4239
- sarcosine/alanine [1]: -0.04603
- sn-glycerol-3-phosphate [1]: 0.03018
- succinate/methylmalonic acid [1]: 0.08193
- uridine [1]: 0.101
- xanthosine [1]: 0.04674

SMILES: COc1ccc2c(c1)OC(O)(C(F)(F)C(F)(F)F)CC2=O (stereo not drawn) [MMV007839]
- EC50 (P. falciparum): 0.283 µM
- Acetyllysine [1]: -0.1495
- N-acetyl-L-ornithine [1]: -0.3633
- N-carbamoyl-L-aspartate [1]: -1.795
- NADPH [1]: -0.4001
- dAMP [1]: -1.537
- dCMP [1]: -0.8612
- dTDP [1]: -1.865
- dTMP [1]: -1.855
- dTTP [1]: -0.1915
- dihydroorotate [1]: -1.4167
- orotate [1]: -2.224
- DLH [1]: -0.6186
- DLS/SDL/SID [1]: -1.11
- PD [1]: 0.5838
- PEE [1]: -0.1635
- PVNF [1]: -0.3342
- 3-phosphoglycerate [1]: 0.9102
- ADP-D-glucose [1]: -0.2
- ATP [1]: -0.07659
- CDP [1]: -1.957
- D-sedoheptulose-1/7-phosphate [1]: -0.1553
- FAD [1]: -0.4884
- GMP [1]: -0.7332
- NAD+ [1]: -0.1711
- NADP+ [1]: -0.2719
- Octoluse Bisphosphate [1]: 0.7306
- Pyroglutamic acid [1]: 0.1304
- UDP-D-glucose [1]: -0.2042
- UDP-D-glucuronate [1]: -0.2026
- UDP-N-acetyl-glucosamine [1]: -0.2915
- UDP [1]: -2.077
- UMP [1]: -0.8849
- UTP [1]: -0.5295
- a-ketoglutarate [1]: -0.1816
- citrate/isocitrate [1]: 0.3799
- cytidine [1]: 0.004906
- dATP [1]: -0.1041
- dGMP/AMP [1]: -1.779
- fumarate [1]: -0.2064
- glucose-1/6-phosphate [1]: -0.5084
- glycerate [1]: 3.453
- guanine [1]: -0.7539
- guanosine [1]: -0.466
- hypoxanthine [1]: 0.3062
- indole [1]: 0.0845
- inosine [1]: 0.6443
- 2_3-Diphosphoglyceric acid [1]: 0.2433
- 4-phosphopantothenate [1]: -0.5485
- 6-phospho-D-gluconate [1]: 0.05032
- FMN [1]: -0.6664
- IMP [1]: -0.6059
- Pyrophosphate [1]: 0.1105
- Sedoheptoluse bisphosphate [1]: 0.5834
- cyclic-AMP [1]: -1.0489
- glutathione disulfide [1]: -0.5477
- lactate [1]: 0.3101
- myo-inositol [1]: 0.232
- nicotinate [1]: 0.1131
- ornithine [1]: 0.4692
- phosphoenolpyruvate [1]: 1.103
- pyruvate [1]: 2.0227
- ribose-phosphate [1]: 0.6152
- sarcosine/alanine [1]: 0.4418
- sn-glycerol-3-phosphate [1]: 0.2795
- succinate/methylmalonic acid [1]: -0.36
- uridine [1]: -0.244
- xanthosine [1]: -0.1676

SMILES: OC(CNC1CCCCC1)Cn1c2ccccc2c2ccccc21 (stereo not drawn) [MMV009063]
- EC50 (P. falciparum): 0.293 µM
- Acetyllysine [1]: -0.9697
- N-acetyl-L-ornithine [1]: -0.4154
- N-carbamoyl-L-aspartate [1]: -0.3154
- NADPH [1]: 0.37
- dAMP [1]: 0.9178
- dCMP [1]: 4.938
- dTDP [1]: 0.7098
- dTMP [1]: 0.6703
- dTTP [1]: 1.896
- dihydroorotate [1]: -0.3265
- orotate [1]: -0.5164
- DLH [1]: -0.8674
- DLS/SDL/SID [1]: -0.2423
- PD [1]: -0.8841
- PEE [1]: -0.7244
- PVNF [1]: -0.6115
- 3-phosphoglycerate [1]: 0.9312
- ADP-D-glucose [1]: 0.2307
- ATP [1]: 0.3671
- CDP [1]: 0.5148
- D-sedoheptulose-1/7-phosphate [1]: -0.5559
- FAD [1]: 0.5708
- GMP [1]: 0.12
- NAD+ [1]: -0.1605
- NADP+ [1]: 0.3102
- Octoluse Bisphosphate [1]: 0.2421
- Pyroglutamic acid [1]: 0.1616
- UDP-D-glucose [1]: 0.2936
- UDP-D-glucuronate [1]: 0.2553
- UDP-N-acetyl-glucosamine [1]: 0.3811
- UDP [1]: 0.491
- UMP [1]: 0.4628
- UTP [1]: 0.409
- a-ketoglutarate [1]: -0.1494
- citrate/isocitrate [1]: 0.2484
- cytidine [1]: 0.7064
- dATP [1]: 0.1129
- dGMP/AMP [1]: 0.3842
- fumarate [1]: -0.3431
- glucose-1/6-phosphate [1]: 1.039
- glycerate [1]: 0.4301
- guanine [1]: 0.4492
- guanosine [1]: 0.3938
- hypoxanthine [1]: 0.2685
- indole [1]: -0.01895
- inosine [1]: 0.305
- 2_3-Diphosphoglyceric acid [1]: 0.9003
- 4-phosphopantothenate [1]: 0.6116
- 6-phospho-D-gluconate [1]: 0.5165
- FMN [1]: 0.5888
- IMP [1]: 0.4443
- Pyrophosphate [1]: -0.0661
- Sedoheptoluse bisphosphate [1]: 0.4491
- cyclic-AMP [1]: 0.4153
- glutathione disulfide [1]: 0.4569
- lactate [1]: 0.8013
- myo-inositol [1]: 0.939
- nicotinate [1]: 0.31
- ornithine [1]: 0.3762
- phosphoenolpyruvate [1]: 0.7676
- pyruvate [1]: 0.735
- ribose-phosphate [1]: 0.3548
- sarcosine/alanine [1]: -0.09066
- sn-glycerol-3-phosphate [1]: 0.5324
- succinate/methylmalonic acid [1]: -0.07148
- uridine [1]: 0.5909
- xanthosine [1]: -0.08621
